The text below walks through data of US7071205B2 (Ligand Pharmaceuticals Incorporated, priority 2002, dated 2006).

The target of experiment [1] is T1, hPR (Homo sapiens, UniProt P06401).
T1 sequence (P06401 1-933): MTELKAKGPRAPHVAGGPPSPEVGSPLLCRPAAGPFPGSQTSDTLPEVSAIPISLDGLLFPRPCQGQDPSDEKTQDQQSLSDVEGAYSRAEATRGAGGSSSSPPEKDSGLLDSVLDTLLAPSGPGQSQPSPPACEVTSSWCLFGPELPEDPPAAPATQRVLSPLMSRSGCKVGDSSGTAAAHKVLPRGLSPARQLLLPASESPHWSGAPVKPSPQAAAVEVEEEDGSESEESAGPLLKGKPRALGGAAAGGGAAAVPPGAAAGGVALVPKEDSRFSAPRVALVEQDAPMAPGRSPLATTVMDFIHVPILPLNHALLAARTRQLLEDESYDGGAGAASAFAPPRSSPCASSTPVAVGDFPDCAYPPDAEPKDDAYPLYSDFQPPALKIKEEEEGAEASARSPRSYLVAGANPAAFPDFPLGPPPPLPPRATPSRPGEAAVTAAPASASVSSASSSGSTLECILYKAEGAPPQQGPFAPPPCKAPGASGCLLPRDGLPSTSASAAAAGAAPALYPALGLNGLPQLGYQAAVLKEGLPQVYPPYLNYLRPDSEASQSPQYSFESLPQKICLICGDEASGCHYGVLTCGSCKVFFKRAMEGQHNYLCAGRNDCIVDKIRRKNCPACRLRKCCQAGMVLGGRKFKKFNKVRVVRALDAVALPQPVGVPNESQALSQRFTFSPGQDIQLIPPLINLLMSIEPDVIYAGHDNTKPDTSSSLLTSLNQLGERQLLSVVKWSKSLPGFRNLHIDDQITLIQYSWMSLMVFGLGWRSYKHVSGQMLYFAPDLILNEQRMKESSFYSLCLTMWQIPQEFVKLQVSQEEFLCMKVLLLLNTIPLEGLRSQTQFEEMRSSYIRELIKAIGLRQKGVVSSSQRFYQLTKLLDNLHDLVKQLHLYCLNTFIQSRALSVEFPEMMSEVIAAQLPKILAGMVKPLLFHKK
The experiment is described as follows: Cotransfection assay, PR agonist activity in CV-1 cells. The experiment is classed as cell-based. As to conditions: for EC50: agonist potency EC50, read-out: PR Agonist CV-1 Cells Potency.
Protocol: (§1) All the cotransfection experiments were carried out in 96-well plates by automation (Beckman Biomomek automated workstation).

Experiment [2] addresses T2, hPR-A (Homo sapiens, UniProt P06401).
T2 sequence (P06401 1-769 isoform P06401-2): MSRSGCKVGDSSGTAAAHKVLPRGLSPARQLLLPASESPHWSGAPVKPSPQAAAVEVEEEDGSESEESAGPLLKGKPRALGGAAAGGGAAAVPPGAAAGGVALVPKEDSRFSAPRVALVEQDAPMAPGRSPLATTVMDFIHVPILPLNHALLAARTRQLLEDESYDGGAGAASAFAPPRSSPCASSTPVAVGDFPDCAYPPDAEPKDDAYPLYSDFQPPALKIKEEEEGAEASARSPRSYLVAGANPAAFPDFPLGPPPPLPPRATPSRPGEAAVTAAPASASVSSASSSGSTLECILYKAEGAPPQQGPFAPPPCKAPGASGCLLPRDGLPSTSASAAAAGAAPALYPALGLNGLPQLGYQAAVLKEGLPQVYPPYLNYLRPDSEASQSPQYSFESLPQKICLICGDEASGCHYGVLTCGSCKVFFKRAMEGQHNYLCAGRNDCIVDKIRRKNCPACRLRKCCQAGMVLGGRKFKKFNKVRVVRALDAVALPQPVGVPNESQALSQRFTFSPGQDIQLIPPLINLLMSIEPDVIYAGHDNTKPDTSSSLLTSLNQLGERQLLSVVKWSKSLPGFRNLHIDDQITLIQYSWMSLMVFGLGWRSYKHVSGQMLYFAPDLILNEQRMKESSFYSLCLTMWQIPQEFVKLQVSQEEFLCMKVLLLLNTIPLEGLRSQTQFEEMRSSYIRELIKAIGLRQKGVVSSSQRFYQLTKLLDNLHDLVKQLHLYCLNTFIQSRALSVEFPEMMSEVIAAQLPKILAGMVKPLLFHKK
The experiment is described as follows: Receptor competitive binding assay. The note with it: hPR-A; read-out: PR Binding Ki.

Experiment [3] concerns the target T1, hPR. The experiment is described as follows: Cotransfection assay, PR antagonist activity in CV-1 cells. The note with it: for IC50: antagonist potency IC50; for PR Antagonist CV-1 Cells Efficacy (%): percent maximal response relative to reference antagonist. The experiment is classed as cell-based.
Protocol: as §1
The mark [4] stands for this setting: CV-1 cells, MTV-LUC reporter, percent maximal response relative to progesterone.

Read-outs that look alike come from different tables or passages of the source. A value given as a limit tells only on which side of the number the result lay.

Turning to `CC#C[C@]1(O)CC[C@H]2[C@@H]3CCC4=CC(=O)CCC4=C3[C@@H](c3ccc(N(C)C)cc3)C[C@@]21C` [RU486, mifepristone, reference compound], the “PR Agonist CV-1 Cells Efficacy (%)” value in experiment [1] was “na (key: na = not active (i.e. efficacy of <20 and potency of >10,000))”.
Turning to `CC1=CC(C2Oc3ccc(F)cc3-c3ccc4c(c32)C(C)=CC(C)(C)N4)CCC1` (single isomer, unassigned; (-)) [Compound 28, (−)-(5l,1′l)-5-(3-methyl-2-cyclohexenyl)-9-fluoro-1,2-dihydro-2,2,4-trimethyl-5H-chromeno[3,4-f]quinoline], in experiment [2], the Ki was 2 nM. Moreover, the “PR Agonist CV-1 Cells Efficacy (%)” value in experiment [1] (setting [4]) was determined as 171%. In addition, the EC50 in experiment [1] (CV-1 cells) was found to be 0.9 nM. In experiment [3], the half-maximal inhibitory concentration (IC50) is over 10000 nM; the “PR Antagonist CV-1 Cells Efficacy (%)” value was “na (na = not active (i.e. efficacy of <20 and potency of >10,000))”.
Take `CC1=CC(C2Oc3ccc(F)cc3-c3ccc4c(c32)C(C)=CC(C)(C)N4)CCC1` (racemic) [Compound 25, (±)-(5l,1′u)-5-(3-methyl-2-cyclohexenyl)-9-fluoro-1,2-dihydro-2,2,4-trimethyl-5H-chromeno[3,4-f]quinoline]: in experiment [2], the Ki worked out at 6.3 nM. For the same compound, the “PR Agonist CV-1 Cells Efficacy (%)” value in experiment [1] (setting [4]) stood at 86%. The EC50 in experiment [1] (CV-1 cells) is 9.7 nM. For the same compound, in experiment [3], the concentration for half-maximal inhibition (IC50) is over 10000 nM; the “PR Antagonist CV-1 Cells Efficacy (%)” value is “na (na = not active (i.e. efficacy of <20 and potency of >10,000))”.
In the case of `CN(C)c1ccc([C@H]2C[C@]3(C)[C@@H](CC[C@]3(O)CCCO)[C@@H]3CCC4=CC(=O)CCC4=C32)cc1` [ZK299, reference compound], the “PR Antagonist CV-1 Cells Efficacy (%)” value in experiment [3] is 99%.
`COc1cc2c(cc1F)-c1ccc3c(c1C(C1C=C(C)CCC1)O2)C(C)=CC(C)(C)N3` (racemic) [Compound 64, (±)-(5l,1′l)-5-(3-methyl-2-cyclohexenyl)-9-fluoro-1,2-dihydro-8-methoxy-2,2,4-trimethyl-5H-chromeno[3,4-f]quinoline]: in experiment [2], the Ki came out at 485 nM. For the same compound, the “PR Agonist CV-1 Cells Efficacy (%)” value in experiment [1] (setting [4]) is “na (na = not active (i.e. efficacy of <20 and potency of >10,000))”. Besides, the EC50 in experiment [1] (CV-1 cells) is over 10000 nM. For the same compound, in experiment [3], the IC50 was determined as 1900 nM and the “PR Antagonist CV-1 Cells Efficacy (%)” value is 80%.
Turning to `CC1=CC(C2Oc3ccc(F)cc3-c3ccc4c(c32)C(C)=CC(C)(C)N4)CCC1` (single isomer, unassigned; (+)) [Compound 27, (+)-(5l,1′l)-5-(3-methyl-2-cyclohexenyl)-9-fluoro-1,2-dihydro-2,2,4-trimethyl-5H-chromeno[3,4-f]quinoline], the Ki in experiment [2] came out at 241 nM. In experiment [1] (setting [4]), the “PR Agonist CV-1 Cells Efficacy (%)” value worked out at 68%. Also, in experiment [1] (CV-1 cells), the EC50 was found to be 43 nM. In addition, in experiment [3], the IC50 is over 10000 nM; the “PR Antagonist CV-1 Cells Efficacy (%)” value is “na (na = not active (i.e. efficacy of <20 and potency of >10,000))”.
`CC1=C[C@@H]([C@H]2Oc3c(F)cc(F)cc3-c3ccc4c(c32)C(C)=CC(C)(C)N4)CCC1` (racemic) [Compound 35, (±)-(5l,1′u)-5-(3-methyl-2-cyclohexenyl)-7,9-difluoro-1,2-dihydro-2,2,4-trimethyl-5H-chromeno[3,4-f]quinoline]: the “PR Agonist CV-1 Cells Efficacy (%)” value in experiment [1] (setting [4]) amounted to 100%. The “PR Antagonist CV-1 Cells Efficacy (%)” value in experiment [3] was “na (na = not active (i.e. efficacy of <20 and potency of >10,000))”.
For the compound `CC1=C[C@@H]([C@H]2Oc3ccc(F)cc3-c3ccc4c(c32)C=CC(C)(C)N4)CCC1` (racemic) [Compound 42, (±)-(5l,1′u)-5-(3-methyl-2-cyclohexenyl)-9-fluoro-1,2-dihydro-2,2-dimethyl-5H-chromeno[3,4-f]quinoline], the inhibition constant (Ki) in experiment [2] amounted to 143 nM. Besides, the “PR Agonist CV-1 Cells Efficacy (%)” value in experiment [1] (setting [4]) was determined as 27%. Further, in experiment [1] (CV-1 cells), the EC50 turned out to be 38 nM. For the same compound, in experiment [3], the IC50 is over 10000 nM; the “PR Antagonist CV-1 Cells Efficacy (%)” value was “na (na = not active (i.e. efficacy of <20 and potency of >10,000))”.
`CC1=CC(C2Oc3ccc(F)cc3-c3ccc4c(c32)C(C)=CC(C)(C)N4)CC1` (racemic) [Compound 44, (±)-(5l,1′l)-5-(3-methyl-2-cyclopentenyl)-9-fluoro-1,2-dihydro-2,2,4-trimethyl-5H-chromeno[3,4-f]quinoline]: the Ki in experiment [2] worked out at 7.7 nM. Further, the “PR Agonist CV-1 Cells Efficacy (%)” value in experiment [1] (setting [4]) worked out at 123%. Moreover, the EC50 in experiment [1] (CV-1 cells) came to 6.7 nM. In experiment [3], the IC50 is over 10000 nM; the “PR Antagonist CV-1 Cells Efficacy (%)” value is “na (na = not active (i.e. efficacy of <20 and potency of >10,000))”.
`COc1cc2c(cc1F)-c1ccc3c(c1C(C1C=C(C)CCC1)O2)C(C)=CC(C)(C)N3` (racemic) [Compound 65, (±)-(5l,1′u)-5-(3-methyl-2-cyclohexenyl)-9-fluoro-1,2-dihydro-8-methoxy-2,2,4-trimethyl-5H-chromeno[3,4-f]quinoline]: in experiment [2], the inhibition constant Ki is 329 nM. In addition, in experiment [1] (setting [4]), the “PR Agonist CV-1 Cells Efficacy (%)” value is “na (na = not active (i.e. efficacy of <20 and potency of >10,000))”. Besides, the EC50 in experiment [1] (CV-1 cells) is over 10000 nM. In experiment [3], the IC50 was found to be 650 nM and the “PR Antagonist CV-1 Cells Efficacy (%)” value is on record as 59%.
Turning to `CC(=O)[C@H]1CC[C@H]2[C@@H]3CCC4=CC(=O)CC[C@]4(C)[C@H]3CC[C@]12C` [Prog, progesterone, reference compound], in experiment [1] (setting [4]), the “PR Agonist CV-1 Cells Efficacy (%)” value came out at 100%.
On to `CC1=CC(C2Oc3ccc(F)cc3-c3ccc4c(c32)C(C)=CC(C)(C)N4)CC1` (racemic) [Compound 45, (±)-(5l,1′u)-5-(3-methyl-2-cyclopentenyl)-9-fluoro-1,2-dihydro-2,2,4-trimethyl-5H-chromeno[3,4-f]quinoline], for which the Ki in experiment [2] stood at 17 nM. In addition, the “PR Agonist CV-1 Cells Efficacy (%)” value in experiment [1] (setting [4]) turned out to be 94%. In addition, the EC50 in experiment [1] (CV-1 cells) was 9.1 nM. For the same compound, in experiment [3], the IC50 was over 10000 nM; the “PR Antagonist CV-1 Cells Efficacy (%)” value is “na (na = not active (i.e. efficacy of <20 and potency of >10,000))”.
On to `CC1=C[C@H]([C@H]2Oc3ccc(F)cc3-c3ccc4c(c32)C=CC(C)(C)N4)CCC1` (racemic) [Compound 41, (±)-(5l,1′l)-5-(3-methyl-2-cyclohexenyl)-9-fluoro-1,2-dihydro-2,2-dimethyl-5H-chromeno[3,4-f]quinoline], for which, in experiment [2], the inhibition constant Ki is 11 nM. Moreover, the “PR Agonist CV-1 Cells Efficacy (%)” value in experiment [1] (setting [4]) amounted to 122%. For the same compound, the EC50 in experiment [1] (CV-1 cells) was determined as 10 nM. Also, in experiment [3], the IC50 was over 10000 nM; the “PR Antagonist CV-1 Cells Efficacy (%)” value is “na (na = not active (i.e. efficacy of <20 and potency of >10,000))”.
For the compound `CC1=CC(C2Oc3c(F)cc(F)cc3-c3ccc4c(c32)C(C)=CC(C)(C)N4)CCC1` (single isomer, unassigned; (+)) [Compound 37, (+)-(5l,1′l)-5-(3-methyl-2-cyclohexenyl)-7,9-difluoro-1,2-dihydro-2,2,4-trimethyl-5H-chromeno[3,4-f]quinoline], the “PR Agonist CV-1 Cells Efficacy (%)” value in experiment [1] (setting [4]) is “na (na = not active (i.e. efficacy of <20 and potency of >10,000))”. Also, the “PR Antagonist CV-1 Cells Efficacy (%)” value in experiment [3] was determined as 50%.

For orientation: Ki means the dissociation constant of the complex between target and ligand, obtained from inhibition or displacement. Usually IC50 stands for the concentration at which inhibition is half-maximal. Lower therefore signals higher potency.
